The text below walks through data of patent US7049396B2, “Synthetic peptides that inhibit leukocyte superoxide anion production and/or attract leukocytes” (priority 1995, dated 2006).

Where a SMILES comes first, the peptide text is derived from it.

In experiment [1] the test system is S. choleraesuis, ATCC 6962. Nature of the experiment: Bacterial susceptibility to neutrophil phagocytosis. Format: cell-based, Salmonella choleraesuis. As to conditions: bacteria treated at 8 MICs. On the procedure:
Plates were incubated at 37° C. for 18 hr. […] Viable bacteria were counted. Tests were repeated on three different days. […] The results were expressed as the mean ± standard deviation. […] S. choleraesuis, ATCC 6962 was used in this experiment. […] Slides were stained with LeukoStat solutions (Fisher, Pittsburgh, Pa.). […] At least 200 neutrophils were examined. […] Tests were repeated on three different days. Results were expressed as the mean±standard deviation.

Experiment [2] deals with T1, cell-free NADPH oxidase (human neutrophil cytosol and membranes) (Homo sapiens, UniProt P14598).
T1 construct: 10^6 cell equivalents of human neutrophil cytosol; from tissue; host or cells: human peripheral blood neutrophils (cytosol and deoxycholate-solubilized membranes)
T1 sequence (P14598 1-390): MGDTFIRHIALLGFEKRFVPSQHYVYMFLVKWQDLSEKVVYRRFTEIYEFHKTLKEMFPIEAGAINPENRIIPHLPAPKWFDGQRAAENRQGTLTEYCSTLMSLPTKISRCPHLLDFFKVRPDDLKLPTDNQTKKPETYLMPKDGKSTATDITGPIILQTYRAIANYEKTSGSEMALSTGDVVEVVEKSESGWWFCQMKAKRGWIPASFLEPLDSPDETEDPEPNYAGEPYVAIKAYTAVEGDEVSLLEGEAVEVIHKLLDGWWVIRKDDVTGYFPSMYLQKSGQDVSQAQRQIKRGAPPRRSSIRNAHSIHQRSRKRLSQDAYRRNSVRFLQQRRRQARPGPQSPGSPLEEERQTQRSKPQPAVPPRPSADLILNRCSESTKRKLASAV
Nature of the experiment: Cell-free O2- production assay. It is filed as biochemical. On the procedure:
Reactions (100 μl) contained 10^6 cell equivalents of human neutrophil cytosol and 5×10^5 cell equivalents of deoxycholate-solubilized membranes prepared from human peripheral blood neutrophils. […] Control reactions contained 5 μg of superoxide dismutase. Superoxide anion generation was calculated based on superoxide dismutase-inhibitable changes in cytochrome c absorbance observed at 551 nm. The reactions were followed for 20 min. after addition of arachidonic acid, with absorbance readings taken at 1-min. intervals. […] Determinations were based on reactions performed in duplicate. • (ii) Binding assays. Neutrophils were disrupted by sonication, and unbroken cells, debris, and granules were removed by centrifuigation (13,000×g for 60 min.). Cytosol fractions were prepared by centrifugation (100,000 g for 45 min.) of the supernatants to remove residual membranes. Cytosolic proteins (15 μg in reducing buffer) were separated on a 7.5% SDS PAGE gel, transferred to PVDF membranes, and probed with biotinylated PR-39 (0.3 μM) for 2 hr. Binding between PR-39 and cytosolic proteins were visualized by a chemiluminescent streptavidin alkaline phosphatase system using an Epson scanner (Torrance, Calif.) and the NIH Image program. PR-39 was labeled with biotin hydrazide at the carboxy-terminus (Pierce Chemical Co., Rockford, Ill.) and purified by gel filtration chromatography.

In general, IC50 refers to the point on the concentration scale where inhibition reaches its midpoint. Consider `CC[C@H](C)[C@H](NC(=O)[C@H](CCCNC(=N)N)NC(=O)[C@@H]1CCCN1C(=O)[C@@H]1CCCN1C(=O)[C@H](CC(C)C)NC(=O)[C@H](CCCNC(=N)N)NC(=O)[C@@H]1CCCN1C(=O)[C@@H]1CCCN1C(=O)[C@H](Cc1ccccc1)NC(=O)[C@H](Cc1ccccc1)NC(=O)[C@@H]1CCCN1C(=O)[C@@H]1CCCN1C(=O)[C@@H]1CCCN1C(=O)[C@H](CCCNC(=N)N)NC(=O)[C@@H]1CCCN1C(=O)[C@H](CCCNC(=N)N)NC(=O)[C@@H]1CCCN1C(=O)[C@H](CC(C)C)NC(=O)[C@H](Cc1ccc(O)cc1)NC(=O)[C@@H]1CCCN1C(=O)[C@@H]1CCCN1C(=O)[C@H](CCCNC(=N)N)NC(=O)[C@@H]1CCCN1C(=O)[C@H](CCCNC(=N)N)NC(=O)[C@H](CCCNC(=N)N)NC(=O)[C@@H](N)CCCNC(=N)N)C(=O)N1CCC[C@H]1C(=O)N1CCC[C@H]1C(=O)NCC(=O)N[C@@H](Cc1ccccc1)C(=O)N1CCC[C@H]1C(=O)N1CCC[C@H]1C(=O)N[C@@H](CCCNC(=N)N)C(=O)N[C@@H](Cc1ccccc1)C(=O)N1CCC[C@H]1C(=O)N1CCC[C@H]1C(=O)N[C@@H](CCCNC(=N)N)C(=O)N[C@@H](Cc1ccccc1)C(=O)N1CCC[C@H]1C(=O)O` [PR-39] (H-RRRPRPPYLPRPRPPPFFPPRLPPRIPPGFPPRFPPRFP-OH; N-terminus and C-terminus assumed), for which, in experiment [1], the “phagocytic index of porcine neutrophils” value is reported as “did not increase”. The molecule also had an IC50 in experiment [2] of around 2000 nM. Further, in experiment [2] (cell-free assay, concentrations greater than 5 μM), the “inhibition of O2- generation” value was “completely inhibited”.
